According to ChEMBL document CHEMBL1201862, “PubChem BioAssay data set” (2004):
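Where inhibition never reached the appropriate level, the endpoint shown equals the highest concentration tested. Otherwise, values were interpolated linearly from a five-concentration, 48-hour dose response in 96-well plates. At the GI50, growth is halved.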 Active and inactive are the calls of the source. Rule as the data show it: active = GI50 up to about 1.1 µM and inactive = higher.

Key:
Assay in all cases: growth of human tumour cells (NCI), 48 h
[1] = test system: 786-0
[2] = test system: A498
[3] = test system: A549
[4] = test system: ACHN
[5] = test system: BT-549
[6] = test system: CAKI-1
[7] = test system: CCRF-CEM
[8] = test system: COLO 205
[9] = test system: DU-145
[10] = test system: EKVX
[11] = test system: HCC 2998
[12] = test system: HCT-116
[13] = test system: HCT-15
[14] = test system: HL-60
[15] = test system: HOP-62
[16] = test system: HOP-92
[17] = test system: HT-29
[18] = test system: Hs-578T
[19] = test system: IGROV-1
[20] = test system: K562
[21] = test system: KM12
[22] = test system: M14
[23] = test system: MCF7
[24] = test system: MDA-MB-231
[25] = test system: MDA-MB-435
[26] = test system: MDA-N
[27] = test system: MOLT-4
[28] = test system: Malme-3M
[29] = test system: NCI-H226
[30] = test system: NCI-H23
[31] = test system: NCI-H460
[32] = test system: NCI-H522
[33] = test system: NCI/ADR-RES
[34] = test system: OVCAR-3
[35] = test system: OVCAR-4
[36] = test system: OVCAR-5
[37] = test system: OVCAR-8
[38] = test system: PC-3
[39] = test system: RPMI-8226
[40] = test system: RXF 393
[41] = test system: SF-268
[42] = test system: SF-295
[43] = test system: SF-539
[44] = test system: SK-MEL-28
[45] = test system: SK-MEL-2
[46] = test system: SK-MEL-5
[47] = test system: SK-OV-3
[48] = test system: SN12C
[49] = test system: SNB-19
[50] = test system: SR
[51] = test system: T47D
[52] = test system: TK-10
[53] = test system: U-251
[54] = test system: UACC-257
[55] = test system: UACC-62
[56] = test system: UO-31
[57] = test system: SNB-75
[58] = test system: SW-620
[59] = test system: LOX IMVI

Measured: GI50

CCn1c2ccc(O)c(C(=O)OC)c2c2cc3ccccc3c(O)c21
inactive: [1] 12.3 µM | [2] 13.1 µM | [3] 16.3 µM | [4] 12.6 µM | [5] 15.2 µM | [6] 13.4 µM | [7] 19 µM | [8] 15.3 µM | [9] 14.5 µM | [10] 35 µM | [11] 22.2 µM | [12] 12.6 µM | [14] 20.1 µM | [15] 20.2 µM | [16] 1.95 µM | [17] 18.5 µM | [18] 7.89 µM | [19] 8 µM | [20] 27.9 µM | [21] 15.3 µM | [22] 20.7 µM | [23] 22.5 µM | [24] 23.2 µM | [25] 17 µM | [26] 20.5 µM | [27] 7.87 µM | [28] 2.72 µM | [29] 26.2 µM | [30] 16.9 µM | [31] 14.2 µM | [32] 18.3 µM | [33] 19.8 µM | [34] 14.5 µM | [35] 18.1 µM | [36] 32.3 µM | [37] 17.4 µM | [38] 20.8 µM | [39] 10.2 µM | [40] 31.2 µM | [41] 16.3 µM | [42] 27.5 µM | [43] 18.7 µM | [44] 26.2 µM | [45] 13.7 µM | [46] 14.2 µM | [47] 10.5 µM | [48] 18.5 µM | [49] 33 µM | [50] 17.4 µM | [51] 11.5 µM | [52] 15.9 µM | [53] 18 µM | [54] 31.6 µM | [55] 23.2 µM | [56] 22.5 µM
15.3 µM: [13]

O=C1CC(=O)NC(NN2C(=O)/C(=C/c3ccc(Cl)c(Cl)c3)N=C2c2ccccc2)=N1
inactive: [1] 26.9 µM | [2] 23.4 µM | [3] 27.2 µM | [4] 40.2 µM | [5] 20.7 µM | [6] 85.3 µM | [7] 11.9 µM | [8] 18.8 µM | [9] 48.2 µM | [11] 19.7 µM | [12] 17.7 µM | [15] 23.9 µM | [16] 27 µM | [17] 22.9 µM | [18] 18.4 µM | [19] 31.1 µM | [20] 13.7 µM | [21] 16.4 µM | [22] 28.8 µM | [23] 16.7 µM | [24] 17.1 µM | [25] 27 µM | [26] 23.9 µM | [27] 15.2 µM | [28] 34.8 µM | [29] 32.1 µM | [30] 26.7 µM | [31] 15.7 µM | [32] 30.8 µM | [33] 19.8 µM | [34] 19.1 µM | [35] 49.3 µM | [36] 46.7 µM | [37] 34 µM | [38] 23.1 µM | [39] 13.6 µM | [40] 24.8 µM | [41] 24.5 µM | [42] 32 µM | [43] 20.8 µM | [44] 28.8 µM | [45] 14.1 µM | [46] 16.3 µM | [47] 46.8 µM | [48] 17.3 µM | [57] 24 µM | [50] 11.7 µM | [58] 30.4 µM | [51] 47.1 µM | [52] 41.9 µM | [53] 23.9 µM | [54] 34.2 µM | [55] 15.7 µM | [56] 29.6 µM
30.3 µM: [13]

Nc1cccc2cc(S(=O)(=O)Nc3ccc(C(=O)O)cc3)ccc12
> 100 µM: [13]
inactive: [1] > 100 µM | [2] > 100 µM | [3] > 100 µM | [4] > 100 µM | [5] > 100 µM | [6] > 100 µM | [7] > 100 µM | [8] > 100 µM | [9] > 100 µM | [10] > 100 µM | [11] > 100 µM | [12] > 100 µM | [14] > 100 µM | [15] > 100 µM | [16] > 100 µM | [17] > 100 µM | [18] > 100 µM | [19] > 100 µM | [20] > 100 µM | [21] > 100 µM | [59] > 100 µM | [22] > 100 µM | [23] > 100 µM | [24] > 100 µM | [25] > 100 µM | [26] > 100 µM | [28] > 100 µM | [29] > 100 µM | [30] > 100 µM | [31] > 100 µM | [32] > 100 µM | [33] > 100 µM | [34] > 100 µM | [35] > 100 µM | [36] > 100 µM | [37] > 100 µM | [38] > 100 µM | [39] > 100 µM | [40] > 100 µM | [41] > 100 µM | [42] > 100 µM | [44] > 100 µM | [45] > 100 µM | [46] > 100 µM | [47] > 100 µM | [48] > 100 µM | [49] > 100 µM | [57] 98.2 µM | [50] > 100 µM | [58] > 100 µM | [51] > 100 µM | [52] > 100 µM | [53] > 100 µM | [54] > 100 µM | [55] > 100 µM | [56] > 100 µM
